Values joined by “and” are separate entries in the source; they are usually repeats but may differ in a detail not shown here. Equal values may be shown once. “Also recorded” adds a separate entry of the source.
How the values were obtained:
[1] = system: Metrazol-induced clonic seizures; assay: Tolerance study, 5 day dosing, scMet; format: in vivo, Sprague Dawley rats
Description: The dose utilized was the predetermined ED50 against the scMet seizure model. In this model a subcutaneous injection of the convulsant Metrazol is used to produce highly reproducible clonic seizures in laboratory animals. […] Animals are pretreated with various doses of the test compound. At the time of peak effect (TPE) of the test compound, a dose of Metrazol that induce convulsions in 97% of animals (CD97: 85 mg/kg mice) is injected into a loose fold of skin in the midline of the neck. The animals are placed in isolation cages to minimize stress (Swinyard et al., 1961) and observed for the next 30 minutes for the presence or absence of a seizure. An episode of clonic spasms, approximately 3-5 seconds, of the fore and/or hindlimbs, jaws, or vibrissae is taken as the endpoint.
In this study, Sprague Dawley rats were used (average weight 150 gm). […] Finally, Group 3 was the solvent control group. These animals were administered the test solvent (methylcellulose 0.5%) as a control. Here methylcellulose was administered i.p. for all 5 days.
On day 5, all animals from each group were tested in the scMet model using the previously determined time of peak effect (TPE) of 15 minutes. Immediately after testing, blood was collected via cardiac puncture. Samples were spun down, plasma was collected and acetonitrile added. Samples were frozen at −80° C. and shipped to a commercial laboratory (Enthalpy) for analysis.

[2] = Plasma levels by LC-MS/MS (tolerance study); format: in vivo, Sprague Dawley rats; details: for Conc HZ-166 in plasma, individual subjects: 35.5 mg/kg
Description: Immediately after testing, blood was collected via cardiac puncture. Samples were spun down, plasma was collected and acetonitrile added. Samples were frozen at −80° C. and shipped to a commercial laboratory (Enthalpy) for analysis.
Group 3 (8 subjects) was dosed with vehicle only.

[3] = system: Pilocarpine-induced Status; assay: Pilocarpine-induced status; format: in vivo, rats; details: for Pilocarpine-induced Status, Time to Peak Effect, ratio of animals: Time 0 Hrs

C#Cc1ccc2c(c1)C(c1ccccn1)=NCc1c(C(=O)OCC)ncn1-2 [Hz166 (106), 8-Acetylenyl-6-pyridin-2-yl-4H-benzo[f]imidazo[1,5-a][1,4]diazepine-3-carboxylic acid ethyl ester]
protection against scMet induced seizures ([1]; Group 1 chronic dosing, day 5): approximately 40%
scMet, animals protected/tested ([1]; Group 1 chronic dosing: 35.5 mg/kg ip once daily 5 days, tested day 5 at TPE 15 min, 35.5 mg/kg): 3/8 and 3/8 protected (chronic dosing)
scMet, animals protected/tested ([1]; Group 2 acute dosing: single 35.5 mg/kg ip dose on day 5, TPE 15 min, 35.5 mg/kg): 1/8 and 1/8 (acute dosing)
scMet, animals protected/tested ([1]; original preliminary study (different rats), acutely treated group): 5/8
scMet, animals protected/tested ([1]; original preliminary study (different rats), chronically treated group): 5/8
tolerance to the anticonvulsant effects ([1]; rats, dosed 5 days at the calculated scMet ED50): didn't develop tolerance; also recorded: did not develop tolerance
HZ-166, plasma average with outliers excluded ([2]; Group 1 (five days dosing)): 0.334 nmol/mL
Conc HZ-166 in plasma, individual subjects ([2]; Group 1: HZ-166 35.5 mg/kg ip for five days, blood after test on day 5): 94.3 ng/mL and 85.4 ng/mL and 168 ng/mL and 138 ng/mL and BLQ < (1.00) ng/mL and 118 ng/mL and 198 ng/mL and 30.5 ng/mL
HZ-166, plasma average with outliers excluded ([2]; Group 2 (day 5 only)): 0.533 nmol/mL
Conc HZ-166 in plasma, individual subjects ([2]; Group 2: HZ-166 35.5 mg/kg ip on day 5 only): 202 ng/mL and 165 ng/mL and 8.67 ng/mL and 273 ng/mL and 210 ng/mL and 93.3 ng/mL and 176 ng/mL

C#Cc1ccc2c(c1)C(c1ccccc1)=N[C@H](C)c1nnc(C)n1-2 [SH-TR-CH3 (146), (4R)-8-Ethynyl-1,4-dimethyl-6-phenyl-4H-benzo[f][1,2,4]triazolo[4,3-a][1,4]diazepine]
Pilocarpine-induced Status, Time to Peak Effect, ratio of animals ([3]; Rats, 100 mg/kg, 0.25 Hr): 0/2
Pilocarpine-induced Status, Time to Peak Effect, ratio of animals ([3]; Rats, 100 mg/kg, 0.5 Hr): 0/2
Pilocarpine-induced Status, Time to Peak Effect, ratio of animals ([3]; Rats, 100 mg/kg, 1.0 Hr): 0/2
Pilocarpine-induced Status, Time to Peak Effect, ratio of animals ([3]; Rats, 100 mg/kg, 2.0 Hr): 0/2
Pilocarpine-induced Status, Time to Peak Effect, ratio of animals ([3]; Rats, 100 mg/kg, 4.0 Hr): 0/2
Pilocarpine-induced Status, Time to Peak Effect, ratio of animals ([3]; Rats, 300 mg/kg, 0.25 Hr): 0/2
Pilocarpine-induced Status, Time to Peak Effect, ratio of animals ([3]; Rats, 300 mg/kg, 0.5 Hr): 0/2
Pilocarpine-induced Status, Time to Peak Effect, ratio of animals ([3]; Rats, 300 mg/kg, 1.0 Hr): 0/2
Pilocarpine-induced Status, Time to Peak Effect, ratio of animals ([3]; Rats, 300 mg/kg, 2.0 Hr): 0/2
Pilocarpine-induced Status, Time to Peak Effect, ratio of animals ([3]; Rats, 300 mg/kg, 4.0 Hr): 0/2
Pilocarpine-induced Status, Time to Peak Effect, ratio of animals ([3]; Rats, 500 mg/kg, 0.25 Hr, Ataxia noted): 0/2^12
Pilocarpine-induced Status, Time to Peak Effect, ratio of animals ([3]; Rats, 500 mg/kg, 0.5 Hr, Ataxia noted): 0/2^12
Pilocarpine-induced Status, Time to Peak Effect, ratio of animals ([3]; Rats, 500 mg/kg, 1.0 Hr, Ataxia noted): 0/2^12
Pilocarpine-induced Status, Time to Peak Effect, ratio of animals ([3]; Rats, 500 mg/kg, 2.0 Hr, Ataxia noted): 0/2^12
Pilocarpine-induced Status, Time to Peak Effect, ratio of animals ([3]; Rats, 500 mg/kg, 4.0 Hr): 0/2
Pilocarpine-induced Status, ratio of animals ([3]; Rats, 600 mg/kg, 0 Hrs post first Stage III seizure): 4/7
Pilocarpine-induced Status, ratio of animals ([3]; Rats, 1,000 mg/kg, 0.5 Hrs post first Stage III seizure, footnote c: death): 1/7^c
